Laboratory results published in patent publication US9150557B1, “Compositions and methods for the treatment of hyperglycemia” (CELLIX BIO PRIVATE LIMITED, priority 2014, dated 2015).

Assay: Water solubility: distilled water added to a weighed amount until a clear solution is obtained
Type: physicochemical
Details: for solubility: thermodynamic from solid, distilled water, weight in mg divided by volume of clear solution in mL
Protocol: Measurement of the water solubility of the test compounds is accomplished by using methods well known to those skilled in the art. Specifically, to a weighed amount of the test compound of the example compound Formula I (1-3) distilled water was added in small proportions until a clear solution was obtained. The total volume of the solution is measured. The water solubility is calculated by dividing the weight of the salt, in milligrams (mg), by the volume of the solution, in mL. […] The compound of Formula I (1-3) is therefore, at least 260 times more soluble in water than EPA itself. This is a clear indication of an unexpectedly high degree of bioavailability of the compositions of the invention. Highly water soluble medicinal preparations, when administered orally, result in efficient absorption from the gastrointestinal tract in to systemic circulation. Furthermore, water soluble preparations are especially suitable for parenteral administration.

| solubility [mg/mL] | times more soluble in water than EPA (ratio of water solubility versus eicosapentaenoic acid (EPA)) | SMILES |
| --- | --- | --- |
| < 0.2 |  | CC/C=C\C/C=C\C/C=C\C/C=C\C/C=C\CCCC(=O)O [EPA, Eicosapentaenoic acid, reference compound] |
| 68.6 | at least 260 times | CC/C=C\C/C=C\C/C=C\C/C=C\C/C=C\CCCC(=O)OCCCN1CC(O)[C@@H](O)[C@H](O)C1CO (stereo partly drawn) [Formula I (1-3)] |
